Assay results as given in US20020049193A1, “N-linked sulfonamides of heterocyclic thioesters” (GPI NIL HOLDINGS, INC., priority 1996, published 2002).
Like-named read-outs stand apart in the source and are kept apart here.

Key:
[1] = test system: chick dorsal root ganglia; assay: Chick dorsal root ganglion cultures and neurite outgrowth; format: cell-based; settings: Gallus gallus, 48 h; read-out: ED50 (the source's name)
Procedure: Dorsal root ganglia were dissected from chick embryos of ten day gestation. Whole ganglion explants were cultured on thin layer Matrigel-coated 12 well plates with Liebovitz L15 plus high glucose media supplemented with 2 mM glutamine and 10% fetal calf serum, and also containing 10 μM cytosine β-D arabinofuranoside (Ara C) at 37° C. in an environment containing 5% CO2. Twenty-four hours later, the DRGs were treated with various immunophilin ligands. Forty-eight hours after drug treatment, the ganglia were visualized under phase contrast or Hoffman Modulation contrast with a Zeiss Axiovert inverted microscope. Photomicrographs of the explants were made, and neurite outgrowth was quantitated. Neurites longer than the DRG diameter were counted as positive, with total number of neurites quantitated per each experimental condition. Three to four DRGs are cultured per well, and each treatment was performed in duplicate.
The data for these experiments for representative compounds are presented in Table II(c) under the column “ED50”.

[2] = target: FKBP12 (Homo sapiens, UniProt P62942); assay: Ki test procedure: inhibition of peptidyl-prolyl isomerase (rotamase) activity, chymotrypsin-coupled assay; format: biochemical; settings: apparent Ki
Chain of FKBP12 (P62942 whole entry, species assumed): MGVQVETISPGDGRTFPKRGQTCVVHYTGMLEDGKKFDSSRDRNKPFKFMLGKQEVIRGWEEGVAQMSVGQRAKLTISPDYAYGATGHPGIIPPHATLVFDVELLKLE
From the text: The inhibition of the prolyl peptidyl cis-trans isomerase activity of FKBP may be measured as an indicator of this affinity.
The compounds of the invention are shown to inhibit peptidyl-prolyl isomerase (rotamase) activity and can be evaluated by known methods described in the literature (Harding, et al., Nature, 1989, 341:758-760; Holt et al. J. Am. Chem. Soc., 115: 9923-9938). The cis-trans isomerization of an alanine-proline bond in a model substrate, N-succinyl-Ala-Ala-Pro-Phe-p-nitroanilide, is monitored spectrophotometrically in a chymotrypsin-coupled assay, which releases para-nitroanilide from the trans form of the substrate. The inhibition of this reaction caused by the addition of different concentrations of inhibitor is determined, and the data is analyzed as a change in first-order rate constant as a function of inhibitor concentration to yield the apparent Ki values.
In a plastic cuvette are added […] of ice cold assay buffer (25 mM HEPES, pH 7.8, 100 mM NaCl), 10 mL of FKBP (2.5 mM in 10 mM Tris-Cl pH 7.5, 100 mM NaCl, 1 mM dithiothreitol), 25 mL of chymotrypsin (50 mg/ml in 1 mM HCl) and […] of test compound at various concentrations in dimethyl sulfoxide. The reaction is initiated by the addition of 5 mL of substrate (succinyl-Ala-Phe-Pro-Phe-para-nitroanilide, 5 mg/mL in 2.35 mM LiCl in trifluoroethanol).
The absorbance at 390 nm versus time is monitored for 90 seconds using a spectrophotometer and the rate constants are determined from the absorbance versus time data files.
The data for these experiments for representative compounds are presented in Tables II(a) and II(b) under the column “Ki”.

[3] = test system: TH-positive dopaminergic neurons in the striatum; assay: MPTP model of Parkinson's Disease; format: in vivo; settings: CD1 mice, MPTP 30 mg/kg i.p. 5 days, test compound 4 mg/kg s.c. 10 days, striatum at 18 days
Procedure: MPTP lesioning of dopaminergic neurons in mice is used as an animal model of Parkinson's Disease. Four week old male CD1 white mice are dosed i.p. with 30 mg/kg of MPTP for 5 days. Test compounds (4 mg/kg), or vehicle, are administered s.c. along with the MPTP for 5 days, as well as for an additional 5 days following cessation of MPTP treatment. At 18 days following MPTP treatment, the animals are sacrificed and the striata dissected and perfusion-fixed.
Immunostaining is performed on saggital and coronal brain sections using anti-tyrosine hydroxylase […] to quantitate survival and recovery of dopaminergic neurons. In animals treated with MPTP and vehicle, a substantial loss of functional dopaminergic terminals is observed as compared to non-lesioned animals. Lesioned animals receiving test compounds show a significant recovery of TH-stained dopaminergic neurons. This model presents quantitation for the recovery of TH-positive dopaminergic neurons in the striatum of animals receiving the compounds of the present invention. Data for representative control and lesioned animals not receiving the test drugs is also presented against the data from the animals receiving the compounds of the present invention in Table III.

Ki ([2]; numerical, read-out: Ki) [nM] | Ki ([2]; ranked potency, read-out: Kl) [nM] | SMILES | EC50 [1] [nM] | % Recovery Tyrosine Hydroxylase [3] [%]
– | – | O=C(SCCc1ccccc1)C1CCCN1S(=O)(=O)Cc1ccccc1 (stereo not shown) [Compound 2] | 1 to 50 | –
22 | 1 to 50 | COc1ccc(CCCSC(=O)[C@@H]2CCCN2S(=O)(=O)Cc2ccccc2)cc1 [Compound 5, 3-(4-Methoxyphenyl)propyl (2S)-1-(benzylsulfonyl)-2-pyrrolidinecarbothioate] | 1 to 50 | –
671 | > 500 | O=C(SCCCc1cccc2ccccc12)[C@@H]1CCCN1S(=O)(=O)Cc1ccccc1 [Compound 24, 3-(1-Naphthyl)propyl (2S)-1-(benzylsulfonyl)-2-pyrrolidinecarbothioate] | – | 40
204 | 201 to 500 | COc1ccc(CCCSC(=O)[C@@H]2CCCN2S(=O)(=O)c2ccccc2)cc1 [Compound 4, 3-(4-Methoxyphenyl)propyl (2S)-1-(phenylsulfonyl)-2-pyrrolidinecarbothioate] | 51 to 200 | 42
– | – | O=C(SC(CCCc1ccccc1)CCCc1ccccc1)C1CCCCN1S(=O)(=O)c1ccccc1 (stereo not shown) [Compound 15] | < 1 | –
82 | – | COc1ccc(CCCSC(=O)C2CCCCN2S(=O)(=O)Cc2ccccc2)cc1 (racemic) [Compound 27, 3-(4-Methoxyphenyl)propyl 1-(benzylsulfonyl)-2-piperidinecarbothioate] | – | –
– | – | COc1cc(S(=O)(=O)N2CCCCC2C(=O)SCCCCc2ccccc2)cc(OC)c1OC (stereo not shown) [Compound 13] | < 1 | –
– | – | O=C(SCCc1ccccc1)C1CCCN1S(=O)(=O)c1ccccc1 (stereo not shown) [Compound 1] | < 1 | –
– | – | O=C(SCCCCc1ccccc1)C1CCCCN1S(=O)(=O)c1ccccc1 (stereo not shown) [Compound 10] | 1 to 50 | –
659 | > 500 | COc1ccc(CCCSC(=O)[C@@H]2CCCCN2S(=O)(=O)c2ccc(C)cc2)cc1 (racemic) [Compound 26, 3-(4-Methoxyphenyl)propyl 1-[(4-methylphenyl)sulfonyl]-2-piperidinecarbothioate] | – | –
69 | 51 to 200 | Cc1ccc(S(=O)(=O)N2CCCCC2C(=O)SCCCc2ccc(C(F)(F)F)cc2)cc1 (racemic) [Compound 29, 3-[4-(Trifluoromethyl)phenyl]propyl 1-[(4-methylphenyl)sulfonyl]-2-piperidinecarbothioate] | – | –
– | – | O=C(SC(CCCc1ccccc1)CCCc1ccccc1)C1CCCCN1S(=O)(=O)Cc1ccccc1 (stereo not shown) [Compound 16] | 51 to 200 | –
– | – | Cc1ccc(S(=O)(=O)N2CCCCC2C(=O)SCCCCc2ccccc2)cc1 (stereo not shown) [Compound 12] | 1 to 50 | –
730 | > 500 | CCc1ccc(S(=O)(=O)N2CCC[C@H]2C(=O)SCCc2ccccc2)cc1 [Compound 21, Phenethyl (2S)-1-[(4-ethylphenyl)sulfonyl]-2-pyrrolidinecarbothioate] | – | –
– | – | O=C(SCCCCc1ccccc1)C1CCCCN1S(=O)(=O)Cc1ccccc1 (stereo not shown) [Compound 11] | 1 to 50 | –
– | – | O=C(SCCC(c1ccccc1)c1ccccc1)C1CCCN1S(=O)(=O)Cc1ccccc1 (stereo not shown) [Compound 8] | < 1 | –
196 | 51 to 200 | COc1ccc(CCCSC(=O)C2CCCCN2S(=O)(=O)c2ccccc2)cc1 (racemic) [Compound 28, 3-(4-Methoxyphenyl)propyl 1-(phenylsulfonyl)-2-piperidinecarbothioate] | – | –
– | – | O=C(SCCC(c1ccccc1)c1ccccc1)C1CCCN1S(=O)(=O)c1ccccc1 (stereo not shown) [Compound 7] | 1 to 50 | –
– | – | O=C(SCCCCc1ccccc1)C1CCCCN1S(=O)(=O)C1CCCCC1 (stereo not shown) [Compound 14] | 1 to 50 | –
145 | 51 to 200 | COc1ccc(CCCSC(=O)[C@@H]2CCCN2S(=O)(=O)c2ccc(C)cc2)cc1 [Compound 6, 3-(4-Methoxyphenyl)propyl (2S)-1-[(4-methylphenyl)sulfonyl]-2-pyrrolidinecarbothioate] | 51 to 200 | 37
– | – | Cc1ccc(S(=O)(=O)N2CCCC2C(=O)SCCc2ccccc2)cc1 (stereo not shown) [Compound 3] | 1 to 50 | –

SMILES | Ki ([2]; numerical, read-out: Ki) [nM] | Ki ([2]; ranked potency, read-out: Kl) [nM] | EC50 [1] [nM] | % Recovery Tyrosine Hydroxylase [3] [%]
O=C(SCCCc1ccccc1)[C@@H]1CCCN1S(=O)(=O)Cc1ccccc1 [Compound 23, 3-Phenylpropyl (2S)-1-(benzylsulfonyl)-2-pyrrolidinecarbothioate] | – | 51 to 200 | – | 80
